Experimental data from US20240025906A1 (NEURON23, INC., priority 2022, published 2024).
Counter-ions that a name gives are not always drawn. Like-named read-outs stand apart in the source and are kept apart here.

Key:
TYK2 JH2 = molecular target: T1, TYK2 JH2 (Homo sapiens, UniProt P29597); test: TYK2 JH2 binding assay (KINOMEscan KdELECT competitive binding); details: TYK2 JH2 domain
T1 construct: purchased DiscoverX (KINOMEscan KdELECT service); host or cells: E. coli BL21-derived (T7 phage display) or HEK-293
Summary of the method: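 Test compounds were titrated in 11 three-fold steps against JH2 fragment captured on ligand-loaded magnetic beads, with 1 h incubation at room temperature and DMSO at 0.9%. Eluted kinase was quantified by qPCR, and Kd was fitted from the dose series.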

[1] = test system: JAK1/TYK2 pSTAT5 (Tyr694/699) in THP-1 cell line; test: IFNa-stimulated JAK1/TYK2 pSTAT5 (Tyr694/699) inhibition cellular assay, AlphaLISA; format: cell-based; details: Homo sapiens, THP-1 cells, AlphaLISA (Assay B)
Summary of the method: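 Compound dilutions were dispensed first, and HBSS-suspended THP-1 cells were added on top (final top concentration 10000 nM, 6-fold series). After 1 h at 37 °C, IFNa (100 ng/mL as added) was applied for 30 min. Cells were then lysed and pSTAT5 was quantified by AlphaLISA.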

[2] = KINOMEscan KdELECT (Assay A), read-out: Biochemical TYK2_DiscoverX_JH2_BND_Kd
[3] = IFNa-stimulated, read-out: Cellular_THP1_IFNa-pSTATS_TYK2
[4] = IFNa-stimulated pSTAT5 (Tyr694/699), read-out: Cellular_THP1_IFNa-pSTATS_TYK2
[5] = KINOMEscan KdELECT (Assay A), read-out: Biochemical TYK2_JH2_Kd
[6] = IFNa-stimulated, read-out: Cellular THP1_IFNa-pSTATS_IC50
[7] = DiscoverX KINOMEscan KdELECT (Assay A), read-out: Biochemical TYK2_DiscoverX_JH2_BND_Kd

T1 sequence (P29597 589-875 limits assumed): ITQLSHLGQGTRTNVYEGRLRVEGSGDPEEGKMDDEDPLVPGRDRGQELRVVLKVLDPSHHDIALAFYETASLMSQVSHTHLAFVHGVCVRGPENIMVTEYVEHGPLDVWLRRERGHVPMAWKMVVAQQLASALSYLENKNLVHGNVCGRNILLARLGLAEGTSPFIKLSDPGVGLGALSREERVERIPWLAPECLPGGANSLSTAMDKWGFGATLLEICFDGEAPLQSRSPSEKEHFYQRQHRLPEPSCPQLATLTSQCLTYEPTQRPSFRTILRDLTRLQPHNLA

| Kd (TYK2 JH2; [2]) [nM] | IC50 [1, 3] [nM] | Kd (TYK2 JH2; [7]) [nM] | Structure (SMILES) | also measured |
| --- | --- | --- | --- | --- |
| ≤ 100 | ≤ 500 | – | CNc1ncc(-c2nc3cc(N4CC[C@H](F)C4)ccc3o2)c2cc(NC(=O)C3CC3)ncc12 (single isomer, unassigned) [Example 945] | – |
| ≤ 100 | ≤ 500 | – | CNc1ncc(C#Cc2ccc3nnn(CCC#N)c3c2)c2cc(NC(=O)C3CC3)ncc12 [Example 686, N-(5-((1-(2-cyanoethyl)-1H-benzo[d][1,2,3]triazol-6-yl)ethynyl)-8-(methylamino)-2,7-naphthyridin-3-yl)cyclopropanecarboxamide] | – |
| – | ≤ 500 | ≤ 100 | CNc1ncc(-c2nc3ccc(OC4CC4)cn3n2)c2cc(NC(=O)C3CC3)ncc12 [Example 494, N-(5-(6-cyclopropoxy-[1,2,4]triazolo[1,5-a]pyridin-2-yl)-8-(methylamino)-2,7-naphthyridin-3-yl)cyclopropanecarboxamide] | – |
| ≤ 100 | – | – | CNc1ncc(-c2cn3cc(C)cc(F)c3n2)c2cc(NC(=O)C3CC3)ncc12 [Example 1055] | IC50 [1, 4]: ≤ 500 nM |
| – | ≤ 500 | ≤ 100 | CNc1ncc(-c2nc3cc(N4CC(OC)C4)ccc3o2)c2cc(NC(=O)C3CC3)ncc12 [Example 280, N-(5-(5-(3-methoxyazetidin-1-yl)benzo[d]oxazol-2-y1)-8-(methylamino)-2,7-naphthyridin-3-yl)cyclopropanecarboxamide] | – |
| – | ≤ 500 | ≤ 100 | CCOC(=O)[C@@H]1C[C@@H]1C(=O)Nc1cc2c(-c3nc4cc(OC)ccc4o3)cnc(NC)c2cn1 (racemic) [Example 391, ethyl 2-((5-(5-methoxybenzo[d]oxazol-2-yl)-8-(methylamino)-2,7-naphthyridin-3-yl)carbamoyl)cyclopropane-1-carboxylate] | – |
| – | ≤ 500 | ≤ 100 | CNc1ncc(-c2nc3ccc(C#N)cc3o2)c2cc(NC(=O)C3CC3)ncc12 [Example 213, N-(5-(6-cyanobenzo[d]oxazol-2-yl)-8-(methylamino)-2,7-naphthyridin-3-yl)cyclopropanecarboxamide] | – |
| ≤ 100 | ≤ 500 | – | CNc1ncc(-c2nc3cnc(C)cc3o2)c2cc(NC(=O)C3CC3)ncc12 [Example 928, N-(8-(methylamino)-5-(6-methyloxazolo[4,5-c]pyridin-2-yl)-2,7-naphthyridin-3-yl)cyclopropanecarboxamide] | – |
| – | ≤ 500 | ≤ 100 | CNc1ncc(-c2nc3cc(N4CC5CC(CN(C)C5)C4)ccc3o2)c2cc(NC(=O)C3CC3)ncc12 [Example 325, N-(5-(5-(7-methyl-3,7-diazabicyclo[3.3.1]nonan-3-yl)benzo[d]oxazol-2-yl)-8-(methylamino)-2,7-naphthyridin-3-yl)cyclopropanecarboxamide] | – |
| – | ≤ 500 | ≤ 100 | CNc1ncc(-c2nc3cc(OCCOC)ccc3o2)c2cc(NC(=O)C3CC3)ncc12 [Example 231, N-(5-(5-(2-methoxyethoxy)benzo[d]oxazol-2-yl)-8-(methylamino)-2,7-naphthyridin-3-yl)cyclopropanecarboxamide] | – |
| – | ≤ 500 | ≤ 100 | CNc1ncc(-c2nc3cc(OC)ccc3o2)c2cc(NC(=O)[C@H]3C[C@H]3C(C)(C)O)ncc12 (racemic) [Example 405, 2-(2-hydroxypropan-2-yl)-N-(5-(5-methoxybenzo[d]oxazol-2-yl)-8-(methylamino)-2,7-naphthyridin-3-yl)cyclopropane-1-carboxamide] | – |
| – | ≤ 500 | ≤ 100 | CNc1ncc(-c2nc3cc(OC4CN(S(C)(=O)=O)C4)ccc3o2)c2cc(NC(=O)C3CC3)ncc12 [Example 250, N-(8-(methylamino)-5-(5-((1-(methylsulfonyl)azetidin-3-yl)oxy)benzo[d]oxazol-2-yl)-2,7-naphthyridin-3-yl)cyclopropanecarboxamide] | – |

Further lines, the compound ahead of its results:

| Structure (SMILES) | Kd (TYK2 JH2; [2]) [nM] | IC50 [1, 3] [nM] | Kd (TYK2 JH2; [7]) [nM] | also measured |
| --- | --- | --- | --- | --- |
| CNc1ncc(C#Cc2ccc(COC)cc2)c2cc(NC(=O)C3CC3)ncc12 [Example 648, N-(5-((4-(methoxymethyl)phenyl)ethynyl)-8-(methylamino)-2,7-naphthyridin-3-yl)cyclopropanecarboxamide] | ≤ 100 | ≤ 500 | – | – |
| CNc1ncc(C#Cc2ccc(N3CCOCC3)cc2)c2cc(NC(=O)[C@H]3C[C@H]3C)ncc12 [Example 1076, (1S,2R)-2-methyl-N-(8-(methylamino)-5-((4-morpholinophenyl)ethynyl)-2,7-naphthyridin-3-yl)cyclopropane-1-carboxamide] | ≤ 100 | – | – | IC50 [1, 4]: ≤ 500 nM |
| CNc1ncc(C#Cc2ccc(N3CCCC3=O)cc2)c2cc(NC(=O)C3CC3)ncc12 [Example 674, N-(8-(methylamino)-5-((4-(2-oxopyrrolidin-1-yl)phenyl)ethynyl)-2,7-naphthyridin-3-yl)cyclopropanecarboxamide] | ≤ 100 | ≤ 500 | – | – |
| CNc1ncc(-c2cnn(CCOC)c2)c2cc(NC(=O)C3CC3)ncc12 [Example 115, N-(5-(1-(2-methoxyethyl)-1H-pyrazol-4-yl)-8-(methylamino)-2,7-naphthyridin-3-yl)cyclopropanecarboxamide] | – | – | – | Kd (TYK2 JH2; [5]): ≤ 100 nM; IC50 [1, 6]: > 500 nM |
| CNc1ncc(C#Cc2ccc(OC3COC3)cc2)c2cc(NC(=O)C3CC3)ncc12 [Example 707, N-(8-(methylamino)-5-((4-(oxetan-3-yloxy)phenyl)ethynyl)-2,7-naphthyridin-3-yl)cyclopropanecarboxamide] | ≤ 100 | ≤ 500 | – | – |
| CNc1ncc(-c2cccnc2)c2cc(NC(=O)C3CC3)ncc12 [Example 14, N-(8-(methylamino)-5-(pyridin-3-yl)-2,7-naphthyridin-3-yl)cyclopropanecarboxamide] | – | – | – | Kd (TYK2 JH2; [5]): ≤ 100 nM; IC50 [1, 6]: > 500 nM |
| CNc1ncc(C#Cc2cn3ccccc3n2)c2cc(NC(=O)C3CC3)ncc12 [Example 619, N-(5-(imidazo[1,2-a]pyridin-2-ylethynyl)-8-(methylamino)-2,7-naphthyridin-3-yl)cyclopropanecarboxamide] | ≤ 100 | ≤ 500 | – | – |
| CNc1ncc(-c2nc3ccc(N4CC(OC)C4)cn3n2)c2cc(NC(=O)C3CC3)ncc12 [Example 476, N-(5-(6-(3-methoxyazetidin-1-yl)-[1,2,4]triazolo[1,5-a]pyridin-2-yl)-8-(methylamino)-2,7-naphthyridin-3-yl)cyclopropanecarboxamide] | – | ≤ 500 | ≤ 100 | – |
| CNc1ncc(C#Cc2ccc3c(c2)OCC(COC)O3)c2cc(NC(=O)C3CC3)ncc12 (stereo not shown) [Example 697, N-(5-((2-(methoxymethyl)-2,3-dihydrobenzo[b][1,4]dioxin-6-yl)ethynyl)-8-(methylamino)-2,7-naphthyridin-3-yl)cyclopropanecarboxamide] | ≤ 100 | ≤ 500 | – | – |
| CNc1ncc(C#Cc2nccc3ccsc23)c2cc(NC(=O)C3CC3)ncc12 [Example 984, N-[8-(methylamino)-5-(2-thieno[2,3-c]pyridin-7-ylethynyl)-2,7-naphthyridin-3-yl]cyclopropanecarboxamide] | ≤ 100 | ≤ 500 | – | – |
| CNc1ncc(-c2nc3ccc(N4CCO[C@H](CO)C4)cn3n2)c2cc(NC(=O)C3CC3)ncc12 [Example 1031] | ≤ 100 | – | – | IC50 [1, 4]: ≤ 500 nM |
| CNc1ncc(C#Cc2ccc(OCC3COC3)cc2)c2cc(NC(=O)C3CC3)ncc12 [Example 677, N-(8-(methylamino)-5-((4-(oxetan-3-ylmethoxy)phenyl)ethynyl)-2,7-naphthyridin-3-yl)cyclopropanecarboxamide] | ≤ 100 | ≤ 500 | – | – |
| CNc1ncc(-c2ccccc2)c2cc(Nc3ccccn3)ncc12 [Example 92, N^1-methyl-4-phenyl-N^6-(pyridin-2-yl)-2,7-naphthyridine-1,6-diamine] | – | – | – | Kd (TYK2 JH2; [5]): ≤ 100 nM; IC50 [1, 6]: > 500 nM |
| CCO/C=C\c1cccc2nc(-c3cnc(NC)c4cnc(NC(=O)C5CC5)cc34)nn12 [Example 506, (Z)—N-(5-(5-(2-ethoxyvinyl)-[1,2,4]triazolo[1,5-a]pyridin-2-yl)-8-(methylamino)-2,7-naphthyridin-3-yl)cyclopropanecarboxamide] | – | ≤ 500 | ≤ 100 | – |
| CNc1ncc(C2=CCOCC2)c2cc(NC(=O)C3CC3)ncc12 [Example 67, N-(5-(3,6-dihydro-2H-pyran-4-yl)-8-(methylamino)-2,7-naphthyridin-3-yl)cyclopropanecarboxamide] | – | – | – | Kd (TYK2 JH2; [5]): ≤ 100 nM; IC50 [1, 6]: > 500 nM |
| CNc1ncc(-c2nc3ccc(N4CCOCC4)cn3n2)c2cc(NC(=O)C3CC3)nnc12 [Example 885, N-(8-(methylamino)-5-(6-morpholino-[1,2,4]triazolo[1,5-a]pyridin-2-yl)pyrido[3,4-c]pyridazin-3-yl)cyclopropanecarboxamide] | ≤ 100 | ≤ 500 | – | – |
| CNc1ncc(-c2ccc(OC)cc2)c2cc(NC(=O)C3CC3)ncc12 [Example 13, N-(5-(4-methoxyphenyl)-8-(methylamino)-2,7-naphthyridin-3-yl)cyclopropanecarboxamide formate] | – | – | – | Kd (TYK2 JH2; [5]): ≤ 100 nM; IC50 [1, 6]: > 500 nM |
